Experimental data: ChEMBL document CHEMBL5291721, “A preclinical secondary pharmacology resource illuminates target-adverse drug reaction associations of marketed drugs” (Nat Commun, 2023)

Legend:
[1] = biological target: T1, 5-hydroxytryptamine receptor 1A (Homo sapiens, UniProt P08908)
T1 sequence (P08908 whole entry): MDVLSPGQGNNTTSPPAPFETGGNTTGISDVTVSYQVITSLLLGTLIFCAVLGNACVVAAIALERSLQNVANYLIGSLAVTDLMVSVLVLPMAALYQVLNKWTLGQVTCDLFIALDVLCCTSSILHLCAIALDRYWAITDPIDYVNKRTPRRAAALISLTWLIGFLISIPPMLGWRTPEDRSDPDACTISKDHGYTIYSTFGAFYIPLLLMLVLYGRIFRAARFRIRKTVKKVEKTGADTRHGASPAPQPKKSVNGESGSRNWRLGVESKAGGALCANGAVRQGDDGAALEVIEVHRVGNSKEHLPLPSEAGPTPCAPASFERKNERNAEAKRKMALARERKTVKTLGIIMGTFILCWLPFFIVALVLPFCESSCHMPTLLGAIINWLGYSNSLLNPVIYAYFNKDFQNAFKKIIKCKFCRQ

Vasopressin V1a receptor = Vasopressin V1a receptor (Homo sapiens, UniProt P37288)
Chain of Vasopressin V1a receptor (P37288 whole entry): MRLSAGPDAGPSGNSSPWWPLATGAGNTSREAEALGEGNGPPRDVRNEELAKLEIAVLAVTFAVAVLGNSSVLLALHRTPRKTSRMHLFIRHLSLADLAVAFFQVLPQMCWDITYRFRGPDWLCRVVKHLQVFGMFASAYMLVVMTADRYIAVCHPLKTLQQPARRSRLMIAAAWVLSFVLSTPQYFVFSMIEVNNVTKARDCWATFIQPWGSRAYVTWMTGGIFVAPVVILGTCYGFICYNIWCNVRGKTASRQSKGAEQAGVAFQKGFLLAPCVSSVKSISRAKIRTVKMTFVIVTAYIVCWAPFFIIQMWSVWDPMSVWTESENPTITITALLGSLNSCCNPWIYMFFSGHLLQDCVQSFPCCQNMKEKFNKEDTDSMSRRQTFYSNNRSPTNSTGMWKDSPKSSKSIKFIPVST

Glucocorticoid receptor = biological target: T2, Glucocorticoid receptor (Homo sapiens, UniProt P04150)
T2 sequence (P04150 whole entry): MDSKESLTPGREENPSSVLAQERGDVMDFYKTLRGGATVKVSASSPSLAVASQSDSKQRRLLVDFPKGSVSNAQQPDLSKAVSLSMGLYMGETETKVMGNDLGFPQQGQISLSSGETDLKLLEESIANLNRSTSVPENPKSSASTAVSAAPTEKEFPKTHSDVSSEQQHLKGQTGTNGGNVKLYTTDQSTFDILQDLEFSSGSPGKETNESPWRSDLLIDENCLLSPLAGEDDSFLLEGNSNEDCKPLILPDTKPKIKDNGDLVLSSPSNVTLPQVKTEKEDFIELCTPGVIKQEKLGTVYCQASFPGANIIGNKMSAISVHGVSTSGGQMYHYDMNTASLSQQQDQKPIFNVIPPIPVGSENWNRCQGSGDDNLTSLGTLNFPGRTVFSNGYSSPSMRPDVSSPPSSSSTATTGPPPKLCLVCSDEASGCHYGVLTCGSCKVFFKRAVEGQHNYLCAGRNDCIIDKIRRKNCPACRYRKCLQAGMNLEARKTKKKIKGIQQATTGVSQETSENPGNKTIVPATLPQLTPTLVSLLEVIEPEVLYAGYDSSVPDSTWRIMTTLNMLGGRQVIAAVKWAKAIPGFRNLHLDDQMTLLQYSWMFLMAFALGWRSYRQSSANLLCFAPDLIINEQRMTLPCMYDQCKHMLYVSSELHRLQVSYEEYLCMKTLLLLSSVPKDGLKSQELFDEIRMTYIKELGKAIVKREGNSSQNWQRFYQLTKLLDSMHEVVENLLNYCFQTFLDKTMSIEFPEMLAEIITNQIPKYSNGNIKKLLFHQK

[2] = biological target: T3, Gastrin/cholecystokinin type B receptor (Homo sapiens, UniProt P32239)
T3 sequence (P32239 whole entry): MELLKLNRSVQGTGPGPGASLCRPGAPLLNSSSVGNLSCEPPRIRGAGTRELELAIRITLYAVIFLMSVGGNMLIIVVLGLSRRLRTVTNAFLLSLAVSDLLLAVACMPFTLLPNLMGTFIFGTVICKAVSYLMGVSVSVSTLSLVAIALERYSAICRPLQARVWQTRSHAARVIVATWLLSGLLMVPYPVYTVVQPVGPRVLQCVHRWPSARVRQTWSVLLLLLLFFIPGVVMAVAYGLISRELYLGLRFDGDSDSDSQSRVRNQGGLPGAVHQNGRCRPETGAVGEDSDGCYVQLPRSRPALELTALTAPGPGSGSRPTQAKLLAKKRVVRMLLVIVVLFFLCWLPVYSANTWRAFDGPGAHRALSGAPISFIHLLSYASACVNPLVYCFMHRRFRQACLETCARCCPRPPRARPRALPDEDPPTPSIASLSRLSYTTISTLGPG

Vasopressin V2 receptor = Vasopressin V2 receptor (Homo sapiens, UniProt P30518)
Chain of Vasopressin V2 receptor (P30518 whole entry): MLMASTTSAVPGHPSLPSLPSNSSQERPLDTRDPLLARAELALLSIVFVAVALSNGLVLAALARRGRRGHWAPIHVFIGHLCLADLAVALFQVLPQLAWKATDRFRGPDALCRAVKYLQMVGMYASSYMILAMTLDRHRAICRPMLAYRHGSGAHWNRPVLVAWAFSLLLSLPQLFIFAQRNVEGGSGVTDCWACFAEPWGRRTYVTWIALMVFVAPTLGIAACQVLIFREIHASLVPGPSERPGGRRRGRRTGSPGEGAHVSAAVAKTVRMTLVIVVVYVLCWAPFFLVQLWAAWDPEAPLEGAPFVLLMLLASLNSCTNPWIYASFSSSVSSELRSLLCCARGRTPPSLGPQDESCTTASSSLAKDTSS
Note: assay procedure not described here.

Row | SMILES | AC50 [1] [µM] | AC50 (Vasopressin V1a receptor) [µM] | AC50 (Glucocorticoid receptor) [µM] | AC50 [2] [µM] | AC50 (Vasopressin V2 receptor) [µM]
1 | CN(C)CCCN1c2ccccc2CCc2ccc(Cl)cc21 [CLOMIPRAMINE] | 5.33 |  |  |  | 
2 | NS(=O)(=O)c1cc2c(cc1Cl)NCNS2(=O)=O [HYDROCHLOROTHIAZIDE] |  | > 10 | > 30 | > 30 | > 30
3 | NC1=NC(=O)C(c2ccccc2)O1 (configuration not stated) [PEMOLINE] |  |  | > 30 | > 30 | > 30
4 | N[C@@H](C(=O)N[C@@H]1C(=O)N2C(C(=O)O)=C(Cl)CS[C@H]12)c1ccccc1 [CEFACLOR ANHYDROUS] |  | > 30 | > 30 | > 30 | > 30
5 | CCN(CC)CCNC(=O)c1cc(Cl)c(N)cc1OC [METOCLOPRAMIDE] |  | > 10 |  | > 30 | > 30
6 | CCc1nn(CCCN2CCN(c3cccc(Cl)c3)CC2)c(=O)n1CCOc1ccccc1 [NEFAZODONE] |  | > 10 |  | > 30 | > 30
7 | O=C(O)c1cc(-c2ccc(F)cc2F)ccc1O [DIFLUNISAL] |  |  | > 10 |  | > 10
8 | C[C@@H]1O[C@@H]1P(=O)(O)O [FOSFOMYCIN] |  | > 10 | > 30 |  | > 10
9 | OCc1cc([C@@H](O)CNCCCCCCOCCOCc2c(Cl)cccc2Cl)ccc1O [VILANTEROL] |  | > 30 |  |  | 
10 | COC(=O)[C@@H]1CC2=CC(=O)CC[C@]2(C)[C@@]23O[C@@H]2C[C@@]2(C)[C@@H](CC[C@@]24CCC(=O)O4)[C@H]13 [EPLERENONE] |  | > 30 |  | > 30 | > 30
11 | CC(C)NCC(O)COc1ccc(COCCOC(C)C)cc1 (configuration not stated) [BISOPROLOL] |  | > 10 | > 30 | > 30 | > 30
12 | CC(N)Cc1ccccc1 (configuration not stated) [AMPHETAMINE] |  | > 30 | > 30 | > 30 | > 30
13 | CC(C)(C(=O)c1cccnc1)c1cccnc1 [METYRAPONE] |  |  | > 10 |  | > 10
14 | COC(=O)N[C@H](C(=O)N1CCC[C@H]1c1nc(-c2ccc(-c3ccc(-c4c[nH]c([C@@H]5CCCN5C(=O)[C@@H](NC(=O)OC)C(C)C)n4)cc3)cc2)c[nH]1)C(C)C |  | > 30 | > 30 | > 30 | > 30
15 | CN1CCCC(n2nc(Cc3ccc(Cl)cc3)c3ccccc3c2=O)CC1 (configuration not stated) [AZELASTINE] |  | > 30 |  |  | 
16 | O=C(CCCCCCC(=O)Nc1ccccc1)NO [VORINOSTAT] |  | > 30 |  | > 30 | > 30
17 | CCC[C@@H]1C[C@@H](C(=O)N[C@@H]([C@H]2O[C@H](SC)[C@H](O)[C@@H](O)[C@H]2O)[C@H](C)Cl)N(C)C1 [CLINDAMYCIN] |  | > 10 |  | > 30 | > 30
18 | COC(=O)C1=C(C)NC(C)=C(C(=O)OCC(C)C)C1c1ccccc1[N+](=O)[O-] (configuration not stated) [NISOLDIPINE] |  |  | 8.8 |  | > 10
19 | CC(C)Cc1ccc(CC(=O)O)cc1 [IBUFENAC] |  | > 30 |  |  | 
20 | NC[C@H]1O[C@H](O[C@H]2[C@H](O)[C@@H](O[C@H]3O[C@H](CO)[C@@H](O)[C@H](N)[C@H]3O)[C@H](N)C[C@@H]2N)[C@H](O)[C@@H](O)[C@@H]1O [KANAMYCIN] |  |  | > 10 |  | > 10
21 | C[C@H]1C[C@@H]2[C@H]([C@@H](O)C[C@@]3(C)[C@H]2CC[C@]3(O)C(=O)CO)[C@@]2(C)C=CC(=O)C=C12 [METHYLPREDNISOLONE] |  |  |  |  | > 10
22 | Cc1ccc(C(=O)c2cc(O)c(O)c([N+](=O)[O-])c2)cc1 [TOLCAPONE] |  | > 10 | > 30 |  | > 10
23 | Cc1cccc(C)c1OCC(C)N (configuration not stated) [MEXILETINE] |  |  |  | > 30 | > 30
24 | CC(=O)c1ccc2c(c1)N(CCCN1CCN(CCO)CC1)c1ccccc1S2 [ACETOPHENAZINE] |  | > 30 |  |  | 
25 | CC(C(=O)O)c1ccc(C(=O)c2cccs2)cc1 (configuration not stated) [SUPROFEN] |  | > 10 | > 10 |  | > 10
26 | CN1C(=O)CC(C)(c2ccccc2)C1=O (configuration not stated) [METHSUXIMIDE] |  | > 10 | > 10 |  | > 10
27 | NC[C@H]1CC[C@H](C(=O)O)CC1 [TRANEXAMIC ACID] |  |  |  |  | > 10
